Reference: patent publication US6509377B1, “Use of a 2-hydroxy-4-trifluoromethylbenzoic acid derivatives as inhibitors of the activation of the nuclear transcription factor NF-κB” (J. Uriach & Cia, S.A., priority 1999, dated 2003)

Tests used:
COX-2 [1] = assay: COX-2 expression induced by LPS in human PBMC (immunoblot); assay type: cell-based; settings: LPS 10 μg/ml, 19 hours, 0.1-5 mM
Experimental: Mononuclear cells (PBMC) were obtained from blood of healthy donors from the Hospital de Sant Pau, (Barcelona) who had not taken any antiinflammatory drug during a period of not less than 2 weeks before blood extraction. Starting from a volume of about 80 ml of heparinized human blood (10 U/ml), this was diluted (1:1) with PBS (pH 7.4; Dulbecco) without calcium, magnesium nor sodium bicarbonate. 15 ml of Ficoll solution (d=1.077 at 20° C.; Biochrom KG) were placed in 50-ml Falcon tubes. To this solution a volume of about 25 ml per tube of the blood previously diluted with PBS was carefully added and the tubes were then centrifuged at 1,200 g for 20 minutes. Mononudear cells concentrate on a whitish interphase between the plasma and the Ficoll solution. This interphase was collected with a Pasteur pipette and was diluted 1:1 with PBS. It was then centrifuged at 300 g, 10 min. The resulting pellet was resuspended in 50 ml PBS and was again centrifuged at 200 g for 10 min in order to remove platelet contamination. Finally, the resulting pellet was resuspended in 20 ml RPMI-1640 culture medium (GibcoBRL) supplemented with 10% fetal calf serum.
Cells were diluted at a concentration of 2.5 million/ml with RPMI medium containing 10% fetal calf serum and were incubated (37° C., 5% CO2) 19 hours in 6-well plates (2 ml/well, 5 million PBMC). […]

[2] = Adjuvant-induced arthritis in the rat; assay type: in vivo; settings: 10 mg/kg p.o. daily for 28 days, day 28
Experimental: Adjuvant-induced arthritis is characterized by the development, from day 14 after adjuvant injection, of a chronic inflammation of immunological origin in several joints, with accumulation of inflammatory cells and release of cytokines. For this study, male Lewis rats with body weight between 100 and 150 g were used. Before the start of the study animals were acclimated for a period of at least 5 days. Animals were fasted for 18 hours before the study, with water ad libitum. Throughout the study, animals were allowed free access to drinking water, except during observation periods. Groups of five animals were randomized (Sham, Control and Triflusal). The duration of the study was 28 days. Arthritis was induced on day 1 of the study by subplantar administration of 0.1 ml of an emulsion formed with 10 mg M. butyricum and 10 ml Freund's incomplete adjuvant (Difco) to the right hindpaw of the animals from the Control and Triflusal groups. Sham animals received 0.1 ml Freund's incomplete adjuvant. […] On day 28 of the development of arthritis, the volume of the contralateral paw to that receiving the adjuvant injection was determined using a UGO BASILE 7150 plethysmometer. The inhibition of the increase in volume was calculated as follows: % Inh.=100−((T-S)/(C-S))*100 Where: T=Triflusal group; C=Control group; and S=Sham group

COX-2 [3] = assay: PGE2 production in rat exudate (carrageenan air pouch); assay type: in vivo; settings: oral 3-30 mg/kg, 6 h
Experimental: Lewis rats (175-200 g) were used in this study. Rats were randomly distributed in groups of 5 animals. An, air pouch was produced by subcutaneous injection of 20 ml of sterile air into the intrascapular area of animals in each group. Every two days, 10 ml of air were injected again into the cavity to keep the space open. Seven days after the first injection of air, 2 ml of a 1% carrageenan solution was injected into the air pouch in all groups to produce an inflammatory reaction. Test compound was administered orally 30 min before carrageenan administration. The animals were killed 6 h later and the volume of exudate was measured. The type and number of cells present were determined using standard Wright-Giemsa staining and a Coulter Counter cell counter, respectively. The exudate was centrifuged at 400 g at 4° C. for 7 min and PGE2 concentration was determined by enzyme-immunoassay (Amershan-Biotrak RPN222). The cell pellet was resuspended in 2 ml cold 0.85% NaCl. To eliminate red cell contamination, cells were subjected to a selective cellular lysis by the addition of 6 ml cold water for 20 seconds. The isotonicity of the cellular suspension was restored by the addition of 2 ml 3.5% NaCl. […]

| SMILES | inhibition of COX-2 expression (COX-2 [1]) | inhibition of the increase in volume of the contralateral paw [2] | inhibition of PGE2 production in the exudate (COX-2 [3]) |
| --- | --- | --- | --- |
| O=C(O)c1ccc(C(F)(F)F)cc1O [HTB, 2-hydroxy-4-trifluoromethylbenzoic acid] | concentration-dependently inhibit |  |  |
| CC(=O)Oc1cc(C(F)(F)F)ccc1C(=O)O [triflusal, 2-Acetyloxy-4-trifluoromethylbenzoic acid, reference compound] | concentration-dependently inhibit | 63.1±8.0% | dose-dependently inhibits |
